Data on two compounds can be found in patent publication US6576628B1, “3-aryl-succinamido-hydroxamic acids, methods for producing said acids and medicaments containing the same” (Roche Diagnostics GmbH, priority 1997, dated 2003).

What all share (format): biochemical
The target in one assay is T1, MMP2 (Homo sapiens, UniProt P08253).
T1 sequence (P08253 110-660): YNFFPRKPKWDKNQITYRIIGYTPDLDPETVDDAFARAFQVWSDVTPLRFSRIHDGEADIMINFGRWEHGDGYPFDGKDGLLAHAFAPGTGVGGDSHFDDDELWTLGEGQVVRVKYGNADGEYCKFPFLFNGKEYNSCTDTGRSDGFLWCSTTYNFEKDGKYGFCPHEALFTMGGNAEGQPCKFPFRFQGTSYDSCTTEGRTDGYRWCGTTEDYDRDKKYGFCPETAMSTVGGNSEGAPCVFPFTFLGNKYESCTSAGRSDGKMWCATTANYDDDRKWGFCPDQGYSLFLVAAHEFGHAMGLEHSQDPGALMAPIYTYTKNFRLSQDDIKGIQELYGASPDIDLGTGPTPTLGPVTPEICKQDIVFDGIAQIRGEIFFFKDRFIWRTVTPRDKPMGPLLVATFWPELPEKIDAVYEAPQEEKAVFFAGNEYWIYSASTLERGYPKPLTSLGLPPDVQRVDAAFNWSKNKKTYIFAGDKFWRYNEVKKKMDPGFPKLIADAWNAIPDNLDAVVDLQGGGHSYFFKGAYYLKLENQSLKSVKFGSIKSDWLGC
Description: MMP2 inhibition assay in analogy to HNC (MMP8) assay. The conditions noted are these: activated MMP2; other concentrations than MMP8 assay.

Assay [1] has as its target T2, catalytic domain (Met80-Gly242) of the human neutrophilic collagenase (MMP8) (Homo sapiens, UniProt P22894).
T2 construct: catalytic domain (Met80-Gly242) of the human neutrophilic collagenase (MMP8); made in house
Description: MMP8 (HNC) catalytic domain fluorogenic substrate inhibition assay. The conditions noted are these: 8 nM catalytic domain, 10 μM DNP-heptapeptide substrate, 25° C., pH 7.6.
Description: 50 mM Tris/HCl pH 7.6 (Tris=Tris-(hydroxymethyl)-aminomethane)
100 mM NaCl/10 mM CaCl2/5% MeOH (if required)
8 nM catalytic domain (Met80-Gly242) of the human neutrophilic collagenase (MMP8)

For a further assay, the target named is T3, MMP1 (Homo sapiens, UniProt P03956).
T3 sequence (P03956 100-469): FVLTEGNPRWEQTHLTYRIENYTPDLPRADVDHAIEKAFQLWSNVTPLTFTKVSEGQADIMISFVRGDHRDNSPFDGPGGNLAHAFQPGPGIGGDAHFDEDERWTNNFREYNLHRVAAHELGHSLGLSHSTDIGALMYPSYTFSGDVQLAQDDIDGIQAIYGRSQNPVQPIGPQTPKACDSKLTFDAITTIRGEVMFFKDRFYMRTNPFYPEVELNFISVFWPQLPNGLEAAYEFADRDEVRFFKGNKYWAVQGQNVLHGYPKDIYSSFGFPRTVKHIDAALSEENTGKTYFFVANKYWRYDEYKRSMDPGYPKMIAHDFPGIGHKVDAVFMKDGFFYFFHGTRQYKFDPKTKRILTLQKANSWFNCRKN
Description: MMP1 inhibition assay in analogy to HNC (MMP8) assay. The conditions noted are these: for inhibition at 0.2 µM: inhibitor at 200 nM, activated MMP1. How it is done: In order to determine the inhibitory potential of compounds of the general formula I on MMPs such as HNC, the catalytic domain is incubated (isolation and purification see Schnierer, S., Kleine, T., Gote, T., Hillemann, A., Knäuper, V., Tschesche, H., Biochem. Biophys. Res. Commun. (1993), 191, 319-326). Subsequently the initial reaction rate of a standard substrate is measured as described in Grams F. et al., FEBS 335 (1993) 76-80). The results are evaluated in the usual manner (see e.g. Dixon, M., Biochem. J. (1953) 55, 170-202).
The synthetic collagenase substrate is a heptapeptide coupled C-terminally with dinitrophenol (DNP). This DNP residue quenches the fluorescence of the Trp of the heptapeptide. After cleavage of a tripeptide containing the DNP residue, the measurable fluorescence increases.
A solution of enzyme and inhibitor is prepared in assay buffer at 25° C. The reaction is started by addition of the substrate to the solution. The cleavage of the fluorogenic substrate is measured by fluorescence spectroscopy (excitation and emission wavelength at 280 and 350 nm respectively). The IC50 value is determined for an inhibitor concentration at which the reaction rate is halved.
An activation is additionally necessary for MMP2 and MMP1.

T2 sequence (P22894 100-262): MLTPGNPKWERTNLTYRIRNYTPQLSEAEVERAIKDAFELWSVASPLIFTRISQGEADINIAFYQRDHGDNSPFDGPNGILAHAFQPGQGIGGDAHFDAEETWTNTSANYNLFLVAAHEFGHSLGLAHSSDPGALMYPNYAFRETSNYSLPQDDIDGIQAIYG

Turning to `CNC(=O)[C@@H](NC(=O)C(c1ccc(-c2ccccc2)cc1)C(O)C(=O)NO)C(C)(C)C` (mixture of isomers) [example 1.5, 2-Biphenyl-4-yl-N1-((1S)-2,2-dimethyl-1-methyl-carbamoyl-propyl)-3,N4-dihydroxy-succinamide], on MMP2, the 50% inhibitory concentration (IC50) (usually the concentration that inhibits the measured activity by half) is 23 nM. In addition, the midpoint of inhibition in assay [1], the IC50, lay at 18 nM. Moreover, at MMP1, the “inhibition of MMP1 compared with Marimastat (in words)” value was “substantially poorer than by Marimastat” and the inhibition (as a rule, the change of the read-out against control, counted positive when it falls) at 0.2 µM came to 20%. Moreover, on MMP1 (compared with Marimastat, MMP2/MMP8 versus MMP1), the “selectivity relative to MMP1 (in words)” value was “clear selectivity advantage relative to MMP1”.
Regarding `CNC(=O)[C@@H](NC(=O)[C@H](CC(C)C)[C@H](O)C(=O)NO)C(C)(C)C` [Marimastat, N2-[3S-hydroxy-4-(N-hydroxyamino)-2R-isobutyl-succinyl)-L-tert-leucine-N1-methylamide, reference compound], at 0.2 µM the inhibition against MMP1 was 100%.
